Assay results as given in patent US8722849B2, “Polypeptides” (Novo Nordisk A/S, priority 2011, dated 2014).
Starred links: 1 amine or outer side, 2 acyl side, 3 side chain; linkers in the order of their positions; H or OH if unused. Positions of bridges follow the written chain, without caps; N, C: chain ends. Residues, ends and D or L forms follow the SMILES beside them. *: point of attachment. C20 diacid = O=C(O)CCCCCCCCCCCCCCCCCCC(=O)*; γGlu = O=C(O)[C@H](CCC(=O)[*:2])N[*:1]

Assays:
[1] = target: T1, human amylin receptor (amylin 3(a) receptor: human calcitonin receptor + RAMP-3) (Homo sapiens, UniProt O60896+P30988); test: Assay (II)a functional CRE-luciferase assay, human amylin receptor; assay type: cell-based; details: Table 2; BHK amylin 3(a)-receptor/CRE-luc cells
T1 construct: expressed in transfected cells; host or cells: BHK570
T1 sequence (P30988 25-474): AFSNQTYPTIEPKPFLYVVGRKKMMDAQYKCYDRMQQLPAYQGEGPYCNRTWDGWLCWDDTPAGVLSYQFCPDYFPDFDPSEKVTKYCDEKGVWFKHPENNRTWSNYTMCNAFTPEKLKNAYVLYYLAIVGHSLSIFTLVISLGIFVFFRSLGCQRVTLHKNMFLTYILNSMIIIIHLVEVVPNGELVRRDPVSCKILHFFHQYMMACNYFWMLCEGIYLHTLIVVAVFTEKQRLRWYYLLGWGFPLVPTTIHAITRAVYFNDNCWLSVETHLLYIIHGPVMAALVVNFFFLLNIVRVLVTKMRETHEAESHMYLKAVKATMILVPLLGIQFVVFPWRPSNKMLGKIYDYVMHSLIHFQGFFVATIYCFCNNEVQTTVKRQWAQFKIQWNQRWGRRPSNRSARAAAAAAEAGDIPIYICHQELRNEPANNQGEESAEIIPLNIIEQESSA
T1 sequence (O60896 24-148 partner): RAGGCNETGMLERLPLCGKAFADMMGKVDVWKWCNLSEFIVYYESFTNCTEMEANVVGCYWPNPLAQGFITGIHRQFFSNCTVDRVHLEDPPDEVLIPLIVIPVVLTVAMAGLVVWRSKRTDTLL

[2] = Assay (III) ThT fibrillation assay for physical stability; assay type: physicochemical
Method in brief: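 Freshly prepared formulations, pH-adjusted, with 1 μM ThT; four or eight replicates incubated at 37 °C under 960 rpm orbital shaking. Fluorescence (ex 444/em 485 nm) read every 20 min; […]. Peptide concentration measured by RP-HPLC before and after the run.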

CC(C)C[C@H](NC(=O)[C@H](CCCNC(=N)N)NC(=O)[C@H](CCC(N)=O)NC(=O)[C@@H](NC(=O)[C@H](C)NC(=O)[C@@H]1CSSC[C@H](NC(=O)[C@H](CCCCN)NC(=O)CC[C@H](NC(=O)CCCCCCCCCCCCCCCCCCC(=O)O)C(=O)O)C(=O)N[C@@H](CC(N)=O)C(=O)N[C@@H]([C@@H](C)O)C(=O)N[C@@H](C)C(=O)N[C@@H]([C@@H](C)O)C(=O)N1)[C@@H](C)O)C(=O)N[C@@H](C)C(=O)N[C@@H](CCC(=O)O)C(=O)N[C@@H](Cc1ccccc1)C(=O)N[C@@H](CC(C)C)C(=O)N[C@@H](CCCNC(=N)N)C(=O)N[C@@H](Cc1c[nH]cn1)C(=O)N[C@@H](CO)C(=O)N[C@@H](CO)C(=O)N[C@@H](CC(N)=O)C(=O)N[C@@H](CC(N)=O)C(=O)N[C@@H](Cc1ccccc1)C(=O)NCC(=O)N[C@@H](C)C(=O)N1CCC[C@H]1C(=O)N[C@@H](CC(C)C)C(=O)N[C@@H](CO)C(=O)N[C@@H](CO)C(=O)N[C@H](C(=O)N[C@@H](CC(N)=O)C(=O)N[C@H](C(=O)NCC(=O)N[C@@H](CO)C(=O)N[C@@H](Cc1c[nH]cn1)C(=O)N[C@H](C(=O)N[C@@H](Cc1ccc(O)cc1)C(N)=O)[C@@H](C)O)C(C)C)[C@@H](C)O [Example 65, N-alpha-[(S)-4-Carboxy-4-(19-carboxynonadecanoylamino)butyryl]-[Glu14,Arg17,Ala25,Pro26,Ser28,Ser29,His35]-pramlintide] ({C20 diacid-γGlu}-KCNTATCATQRLAEFLRHSSNNFGAPLSSTNVGSHTY-NH2; disulfide 2-7 (inferred); C-terminus assumed)
EC50 [1]: 0.217 nM | ThT pH 4.0 lag time ([2]; Table 8): >45 h | ThT pH 4.0 lag time ([2]; ThT fibrillation assay): >45 h | ThT pH 4.0 lag time (h) ([2]; ThT fibrillation assay): >45 h

CC[C@H](C)[C@H](NC(=O)[C@@H]1CCCN1C(=O)CNC(=O)[C@H](Cc1ccccc1)NC(=O)[C@H](CC(N)=O)NC(=O)[C@H](CC(N)=O)NC(=O)[C@H](CO)NC(=O)[C@H](CO)NC(=O)[C@H](Cc1c[nH]cn1)NC(=O)[C@H](Cc1c[nH]cn1)NC(=O)[C@H](CC(C)C)NC(=O)[C@H](Cc1ccccc1)NC(=O)[C@H](CCC(=O)O)NC(=O)[C@H](C)NC(=O)[C@H](CC(C)C)NC(=O)[C@H](CCCNC(=N)N)NC(=O)[C@H](CCC(N)=O)NC(=O)[C@@H](NC(=O)[C@H](C)NC(=O)[C@@H]1CSSC[C@H](NC(=O)[C@H](CCCNC(=N)N)NC(=O)CNC(=O)CC[C@H](NC(=O)CCCCCCCCCCCCCCCCCCC(=O)O)C(=O)O)C(=O)N[C@@H](CC(N)=O)C(=O)N[C@@H]([C@@H](C)O)C(=O)N[C@@H](C)C(=O)N[C@@H]([C@@H](C)O)C(=O)N1)[C@@H](C)O)C(=O)N[C@@H](CC(C)C)C(=O)N1CCC[C@H]1C(=O)N1CCC[C@H]1C(=O)N[C@H](C(=O)N[C@@H](CC(N)=O)C(=O)N[C@H](C(=O)NCC(=O)N[C@@H](CO)C(=O)N[C@@H](CC(N)=O)C(=O)N[C@H](C(=O)N1CCC[C@H]1C(N)=O)[C@@H](C)O)C(C)C)[C@@H](C)O [Example 101, N-alpha-[(S)-4-Carboxy-4-(19-carboxynonadecanoylamino)butyryl]-Gly-[Arg1,Glu14,His17,Pro37]-pramlintide] ({C20 diacid-γGlu}-GRCNTATCATQRLAEFLHHSSNNFGPILPPTNVGSNTP-NH2; disulfide 3-8 (inferred))
EC50 [1]: 0.0515 nM | ThT pH 4.0 lag time ([2]; Table 8): >45 h | ThT pH 4.0 lag time ([2]; Table 9): >45 h | ThT pH 4.0 lag time ([2]; ThT fibrillation assay): >45 h | ThT pH 4.0 lag time (h) ([2]; ThT fibrillation assay): >45 h
